Two compounds from patent US20260355144A1, “METAP2 INHIBITORS FOR THE TREATMENT OF PULMONARY FIBROSIS” (SynDevRx , Inc., priority 2022, published 2026) can be followed below.

Format in all cases: in vivo, C57BL/6 mice
Experiment [1] relates to aged, male, bleomycin-treated mice. Briefly: Respiratory function by whole-body plethysmography (PenH, respiratory rate), Example 1. As to conditions: FIG. 3, day 20 post BLM; SDX-7320 8 mg/kg SC Q4D; nintedanib 50 mg/kg PO QD; pirfenidone 100 mg/kg PO BID.
Description: Animals: Aged, male C57BL/6 mice from Jackson Laboratories, 72 weeks old at the time of randomization were used in this study.
Mice in treatment groups 1 and 2 were administered a vehicle control subcutaneously once every 4 days (Q4D) from day 7 to day 21. […]
Respiratory Function: Respiratory function of the mice were measured using plethysmography. […] After the acclimatization period, the baseline functional respiratory parameters were measured by the whole-body plethysmograph (VivoFlow by SCIREQ) on Day 6 (before treatment introduction and process to the randomization), Days 13 and 20, post-BLM administration. […] The functional respiratory parameters analyzed include respiratory rate and PenH (pulmonary congestion index). […]
Experiment [2] shares this test system. Briefly: Automated histopathological analysis of lung samples, Example 1. As to the method: (§1) Treatment: seven groups of mice were treated as put forth in Table A. Mice in groups 2-7 were challenged with bleomycin solution on Day 0 of the study by a single oropharyngeal installation of bleomycin solution such that the mice were given 1.5 U/kg based on the average body weight of the animals. On day 6 of the study, all mice were randomized based on body weight loss plus their PenH value (see below) as measured on Day 6.
Mice in treatment groups 1 and 2 were administered a vehicle control subcutaneously once every 4 days (Q4D) from day 7 to day 21. Mice in treatment group 3 were administered SDX-7320 subcutaneously Q4D from day 7 to day 21 at a dose of 8 mg/kg (i.e., 4 doses). Mice in treatment group 4 were administered pirfenidone orally (PO) twice a day (BID) from day 7 to day 21 at a dose of 100 mg/kg. […]
Histopathological Analysis: Automatic quantification of morphological features of pulmonary fibrosis were performed using MorphoQuant™ (Biocellvia, France), an automated AI-based digital pathology software for quantification, from the digitalized images (scans) of PSR-stained or antibody labeled lung sections. MorphoQuant™ uses principles of morphometric analysis to detect and quantify specific lung disease features from histological slides (Gilhodes et al. 2017; Michaudel, Fauconnier, et al. 2018). […]

The test system is the same in experiment [3]. Briefly: Wet lung weight (edema), Example 1. As to conditions: FIG. 6, day 21, compared to BLM-treated mice; SDX-7320 8 mg/kg SC Q4D; nintedanib 50 mg/kg PO QD; pirfenidone 100 mg/kg PO BID. The method, then:
as §1
Mice in treatment groups 1 and 2 were administered a vehicle control subcutaneously once every 4 days (Q4D) from day 7 to day 21. Mice in treatment group 3 were administered SDX-7320 subcutaneously Q4D from day 7 to day 21 at a dose of 8 mg/kg (i.e., 4 doses). Mice in treatment group 4 were administered pirfenidone orally (PO) twice a day (BID) from day 7 to day 21 at a dose of 100 mg/kg. Mice in treatment group 5 were administered nintedanib orally (PO) once a day (QD) from day 7 to day 21 at a dose of 50 mg/kg. […]
Lung weight: Lungs were harvested, and the wet lung weights (signifying edema) were recorded.
Statistical Analysis: All parameters were analyzed in the same manner and results were expressed as means±SEM with Graph Pad Prism Software version 8.0 (San Diego, CA, USA). […]

As to `COC(=O)c1ccc2c(c1)NC(=O)/C2=C(\Nc1ccc(N(C)C(=O)CN2CCN(C)CC2)cc1)c1ccccc1` [nintedanib, Methyl (Z)-3-[[[4-[N-methyl-2-(4-methylpiperazin-1-yl)acetamido]phenyl]amino](phenyl)methylene]-2-oxoindoline-6-carboxylate], in experiment [1], the “pulmonary congestion (PenH)” value is “increased the pulmonary congestion”. In addition, the “deposition of collagen in lung tissue” value in experiment [2] (FIG. 22 and Table C, COL1A1, following exposure to bleomycin, SDX-7320 8 mg/kg SC Q4D, nintedanib 50 mg/kg PO QD) is listed as “almost no activity”. Besides, the “COL1A1 area (%)” value in experiment [2] (Table C/FIG. 22, aged male mice, bleomycin 1.5 U/kg oropharyngeal, treatment day 7 to 21, SDX 8 mg/kg SC Q4D, Nin 50 mg/kg PO QD, ab270993 antibody labeled) amounted to 1.387 ± 1.638%. Also, in experiment [3], the “lung weight (wet)” value was “did not significantly reduce lung weight”.

As for `Cc1ccc(=O)n(-c2ccccc2)c1` [pirfenidone, 5-Methyl-1-phenyl-1H-pyridin-2-one], the “lung weight (wet)” value in experiment [3] was “did not significantly reduce lung weight”.
